Experiments:
Type in all cases: cell-based
[1] = tested on: UTP-stimulated Ca2+ response in HT-29 cells; test: Ca FLIPR TETRA assay, ANTAGONIST mode, activator 0.6 μM UTP; settings: for IC50 / inhibition at 50 µM: Homo sapiens; for IC50: HT-29 cells, activator 0.6 μM UTP; for inhibition at 50 µM: HT-29
Description: (§1) Protocol for Testing PAR2 Compounds in ANTAGONIST Mode Using the Ca FLIPR^TETRA Assay (384 Well).
(§2) 23000 HT-29 cells (ATCC# HTB-38) were plated in 384-well black, transparent-flat bottom plates and incubated in 25 uL of 1% FBS/McCoy's media ON at 37° C. under an atmosphere of 5% CO2. The following day, 25 uL FLIPR calcium 5 Molecular Devices assay reagent (Cat: R-8186) was added. Plates were incubated at 37° C. and r. t. for 45 min and 15 min, respectively. Compounds dilutions were prepared in 100% DMSO using a Biomek FX and diluted 20-fold in HBSS and then 5.5 uL was added directly to the cells by the FLIPR^TETRA (10× dilution) using FLIPR Tetra Pipette tips, black, non-sterile, 384 Molecular Devices (Cat: 9000-0764).
(§3) A first read was performed to determine whether the test compounds on their own can activate Ca^2+ responses. The cells were incubated with the compounds for 30 min at r. t. and then read in ANTAGONIST mode in the same plate by stimulating with 6.2 uL of a fixed concentration of the activator: final concentrations 8 μM SLIGKV, 1 U/mL Thrombin, 3.1 U/mL trypsin, or 0.6 μM UTP.

PAR2 (HT-29 cells) [2] = biological target: T1, PAR2 (HT-29 cells) (Homo sapiens, UniProt P55085); test: Ca FLIPR TETRA assay, ANTAGONIST mode, activator 8 μM SLIGKV; settings: HT-29 cells, activator 8 μM SLIGKV
T1 construct: host or cells: HT-29
T1 sequence (P55085 26-397): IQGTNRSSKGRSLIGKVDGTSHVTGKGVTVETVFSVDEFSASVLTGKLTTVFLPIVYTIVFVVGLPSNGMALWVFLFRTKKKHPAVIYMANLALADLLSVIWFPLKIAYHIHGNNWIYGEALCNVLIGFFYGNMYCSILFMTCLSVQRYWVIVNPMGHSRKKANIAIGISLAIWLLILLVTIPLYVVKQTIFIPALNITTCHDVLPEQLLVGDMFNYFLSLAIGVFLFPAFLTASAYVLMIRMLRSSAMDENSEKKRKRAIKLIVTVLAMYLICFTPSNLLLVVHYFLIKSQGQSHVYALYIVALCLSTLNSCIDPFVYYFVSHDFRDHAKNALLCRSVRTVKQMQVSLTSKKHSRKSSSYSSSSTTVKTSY
Description: as §1, §2, §3

[3] = tested on: Thrombin-stimulated Ca2+ response in HT-29 cells; test: Ca FLIPR TETRA assay, ANTAGONIST mode, activator 1 U/mL Thrombin; settings: for IC50: HT-29 cells, activator 1 U/mL Thrombin
Description: as §1, §2, §3

PAR2 (HT-29 cells) [4] = biological target: T1, PAR2 (HT-29 cells); test: Ca FLIPR TETRA assay, ANTAGONIST mode, activator 3.1 U/mL trypsin; settings: HT-29 cells, activator 3.1 U/mL trypsin
Description: as §1, §2, §3

[5] = maximal antagonist concentration per Method (A: 0.1, 1 or 2 μM; B: 50 μM)
[6] = Method A: maximal concentration of antagonist 0.1, 1 or 2 μM

| SMILES | UTP, % @ 50 ([1]; @ 50 (μM)) [% @ 50] | IC50 (PAR2 (HT-29 cells) [2]; [5]) [nM] | IC50 [3] [nM] | IC50 (PAR2 (HT-29 cells) [4]; [5]) [nM] | IC50 [1] [nM] | IC50 (PAR2 (HT-29 cells) [2]; [6]) [nM] | IC50 ([3]; Homo sapiens) [nM] | IC50 (PAR2 (HT-29 cells) [4]; [6]) [nM] | inhibition at 50 µM ([1]; @ 50 (μM)) [%] | Thrombin, % @ 50 ([3]; @ 50 (μM)) [% @ 50] |
| --- | --- | --- | --- | --- | --- | --- | --- | --- | --- | --- |
| CC(C)c1cc(-c2ccc(F)cc2)nc2cc(C(=O)N3CCN(C(=O)C4CC4(F)F)CC3(C)C)oc12 (single isomer, unassigned) [Example I-76] | 56 | 33 | > 50000 | 100 | – | – | – | – | – | – |
| CC(CC(=O)N1CCN(C(=O)c2cc3nc(-c4ccc(Cl)c(F)c4)cc(C(C)(C)C)c3o2)C(C)(C)C1)C(=O)O (single isomer, unassigned) [Example I-513] | – | – | – | – | > 2000 | 1.2 | > 2000 | 1.7 | – | – |
| CC(CC(=O)N1CCN(C(=O)c2cc3nc(-c4ccc(Cl)c(F)c4)cc(C(C)(C)C)c3o2)C(C)(C)C1)C(=O)O (single isomer, unassigned) [Example I-514] | – | – | > 2000 | – | – | 1.3 | – | 1.1 | – | – |
| CC(C)c1cc(-c2ccc(F)cc2)nc2cc(C(=O)N3CCN(C(=O)C(C)(C)O)CC3(C)C)oc12 [Example I-1] | – | 68 | – | 64 | 20000 | – | 19000 | – | – | – |
| CC(C)(C)OC(=O)N1CCN(C(=O)c2cc3nc(-c4ccc(F)cc4)cc(Cl)c3o2)C(C)(C)C1 [Example I-2] | – | 22 | – | 29 | > 50000 | – | > 50000 | – | – | – |
| Cc1cc(-c2ccc(F)cc2)nc2cc(C(=O)N3CCN(C(=O)C(C)(C)O)CC3(C)C)oc12 [Example I-3] | – | 710 | – | 810 | 18000 | – | 26000 | – | – | – |
| CCc1cc(-c2ccc(F)cc2)nc2cc(C(=O)N3CCN(C(=O)C(C)(C)O)CC3(C)C)oc12 [Example I-4] | – | 210 | – | 190 | 12000 | – | 8400 | – | – | – |
| CC(C)(O)C(=O)N1CCN(C(=O)c2cc3nc(-c4ccc(F)cc4)cc(C4CC4)c3o2)C(C)(C)C1 [Example I-5] | – | 120 | – | 160 | 8800 | – | 11000 | – | – | – |
| CC(C)c1cc(-c2ccc(F)cc2)nc2cc(C(=O)N3CCN(C(=O)OC(C)(C)C)CC3(C)C)oc12 [Example I-6] | – | 3.2 | – | 4.2 | 36000 | – | > 50000 | – | – | – |
| CC(C)c1cc(-c2ccc(F)cc2)nc2cc(C(=O)N3CCNC(=O)C3(C)C)oc12 [Example I-7] | – | 23 | – | 20 | 2700 | – | 3100 | – | – | – |
| CC(C)c1cc(-c2ccc(F)cc2)nc2cc(C(=O)N3CCN(C(=O)C4(O)CCC4)CC3(C)C)oc12 [Example I-8] | – | 29 | – | 28 | 20000 | – | 3600 | – | – | – |
| CC(C)c1cc(-c2ccc(F)cc2)nc2cc(C(=O)N3CCN(C(=O)CC#N)CC3(C)C)oc12 [Example I-9] | – | 90 | – | 83 | 4500 | – | 9600 | – | – | – |
| CC(C)c1cc(-c2ccc(F)cc2)nc2cc(C(=O)N3CCN(C(=O)C4CCCO4)CC3(C)C)oc12 (stereo not drawn) [Example I-10] | – | 23 | – | 27 | 16000 | – | 15000 | – | – | – |
| CC(C)c1cc(-c2ccc(F)cc2)nc2cc(C(=O)N3CCN(C(=O)c4ccccc4)CC3(C)C)oc12 [Example I-11] | – | 2.4 | – | 3.5 | – | – | 1400 | – | 59 | – |
| CC(C)c1cc(-c2ccc(F)cc2)nc2cc(C(=O)N3CCN(C(=O)C(O)C(C)C)CC3(C)C)oc12 (stereo not drawn) [Example I-12] | – | 8.3 | – | 8.6 | 5800 | – | 8700 | – | – | – |
| CC(C)c1cc(-c2ccc(F)cc2)nc2cc(C(=O)N3CCN(C(=O)c4ccno4)CC3(C)C)oc12 [Example I-13] | – | 3 | – | 4.5 | 1200 | – | 1000 | – | – | – |
| CC(C)c1cc(-c2ccc(F)cc2)nc2cc(C(=O)N3CCN(C(=O)C(C)(C)C)CC3(C)C)oc12 [Example I-14] | – | 2.8 | – | 3 | – | – | – | – | 59 | 57 |
| CC(C)c1cc(-c2ccc(F)cc2)nc2cc(C(=O)N3CCN(C(=O)[C@H](C)O)CC3(C)C)oc12 [Example I-15] | – | 230 | – | 190 | 14000 | – | 14000 | – | – | – |

| SMILES | UTP, % @ 50 ([1]; @ 50 (μM)) [% @ 50] | IC50 (PAR2 (HT-29 cells) [2]; [5]) [nM] | IC50 [3] [nM] | IC50 (PAR2 (HT-29 cells) [4]; [5]) [nM] | IC50 [1] [nM] | IC50 (PAR2 (HT-29 cells) [2]; [6]) [nM] | IC50 ([3]; Homo sapiens) [nM] | IC50 (PAR2 (HT-29 cells) [4]; [6]) [nM] | inhibition at 50 µM ([1]; @ 50 (μM)) [%] | Thrombin, % @ 50 ([3]; @ 50 (μM)) [% @ 50] |
| --- | --- | --- | --- | --- | --- | --- | --- | --- | --- | --- |
| CC(C)c1cc(-c2ccc(F)cc2)nc2cc(C(=O)N3CCN(C(=O)C(C)(C)F)CC3(C)C)oc12 [Example I-16] | – | 7.2 | – | 6.8 | – | – | 6900 | – | 61 | – |
| COCC(=O)N1CCN(C(=O)c2cc3nc(-c4ccc(F)cc4)cc(C(C)C)c3o2)C(C)(C)C1 [Example I-17] | – | 59 | – | 67 | 15000 | – | 14000 | – | – | – |
| CC(C)c1cc(-c2ccc(F)cc2)nc2cc(C(=O)N3CCN(C(=O)[C@H](O)CC(C)(C)C)CC3(C)C)oc12 [Example I-18] | – | 1.4 | – | 1.1 | 17000 | – | 7900 | – | – | – |
| CC(C)c1cc(-c2ccc(F)cc2)nc2cc(C(=O)N3CCN(C(=O)C4(C)CC4)CC3(C)C)oc12 [Example I-19] | – | 5.6 | – | 4.4 | 5700 | – | 10000 | – | – | – |
| CC#CC(=O)N1CCN(C(=O)c2cc3nc(-c4ccc(F)cc4)cc(C(C)C)c3o2)C(C)(C)C1 [Example I-20] | – | 11 | – | 10 | 1500 | – | 7100 | – | – | – |
| CC(C)c1cc(-c2ccc(F)cc2)nc2cc(C(=O)N3CCN(C(=O)CC(C)(C)C)CC3(C)C)oc12 [Example I-21] | – | 1.4 | – | 2.6 | – | – | > 50000 | – | 59 | – |
| CC(C)c1cc(-c2ccc(F)cc2)nc2cc(C(=O)N3CCN(C(=O)C4CC4(C)C)CC3(C)C)oc12 (stereo not drawn) [Example I-22] | – | 2.4 | – | 2 | – | – | > 50000 | – | 64 | – |
| CC(C)c1cc(-c2ccc(F)cc2)nc2cc(C(=O)N3CCN(C(=O)C4(O)CCOCC4)CC3(C)C)oc12 [Example I-23] | – | 80 | – | 71 | 11000 | – | 7800 | – | – | – |
| CC(=O)N1CCN(C(=O)c2cc3nc(-c4ccc(F)cc4)cc(C(C)C)c3o2)C(C)(C)C1 [Example I-24] | – | 48 | – | 44 | 9900 | – | 8700 | – | – | – |
| CC1(c2cc(-c3ccc(F)cc3)nc3cc(C(=O)N4CCNC(=O)C4(C)C)oc23)CC1 [Example I-25] | – | 14 | – | 18 | 2700 | – | 4300 | – | – | – |
| CC1(c2cc(-c3ccc(F)cc3)nc3cc(C(=O)N4CCN(C(=O)C5(O)CC5)CC4(C)C)oc23)CC1 [Example I-26] | – | 6.1 | – | 8 | 7000 | – | 4800 | – | – | – |
| CC(C)(O)C(=O)N1CCN(C(=O)c2cc3nc(-c4ccc(F)cc4)cc(C4(C)CC4)c3o2)C(C)(C)C1 [Example I-27] | – | 19 | – | 33 | 7400 | – | 6000 | – | – | – |
| CC[C@@H](O)C(=O)N1CCN(C(=O)c2cc3nc(-c4ccc(F)cc4)cc(C4(C)CC4)c3o2)C(C)(C)C1 [Example I-28] | – | 4.2 | – | 3.5 | 11000 | – | 8800 | – | – | – |
| CO[C@H](C)C(=O)N1CCN(C(=O)c2cc3nc(-c4ccc(F)cc4)cc(C4(C)CC4)c3o2)C(C)(C)C1 [Example I-29] | – | 23 | – | 32 | 16000 | – | 19000 | – | – | – |
| CC(C)(C)c1cc(-c2ccc(Cl)cc2)nc2cc(C(=O)N3CCNC(=O)C3(C)C)oc12 [Example I-157] | – | 9.2 | – | 7.9 | – | – | – | – | – | – |
| CC(C)(C)c1cc(-c2ccc(Cl)c(F)c2)nc2cc(C(=O)N3CCNC(=O)C3(C)C)oc12 [Example I-176] | – | 4.8 | – | 5 | – | – | – | – | – | – |
| CC(C)(C)c1cc(-c2ccc(Cl)c(F)c2)nc2cc(C(=O)N3CCN(c4nc(C(=O)O)co4)CC3(C)C)oc12 [Example I-290] | – | 3.2 | – | 6.1 | – | – | – | – | – | – |
| CC(C)(C)c1cc(-c2ccc(Cl)cc2)nc2cc(C(=O)N3CCN(c4cnccn4)CC3(C)C)oc12 [Example I-368] | – | – | – | – | – | 12 | – | 9.5 | – | – |

Reference: patent US20180057505A1, “BICYCLIC HETEROARYL COMPOUNDS USEFUL AS INHIBITORS OF THE PAR-2 SIGNALING PATHWAY” (VERTEX PHARMACEUTICALS INCORPORATED, priority 2015, published 2018)
